The subject of experiment [1] is HT-29 (human colon adenocarcinoma). Nature of the experiment: Apoptosis assay, HT-29 cells. The following applies: 5 μM, 4 hours.
Description: Prostate cancer cell line LNCAP was routinely used for the isolation of Apogen P-1 and Apogen P-2, whereas leukemia cell line HL-60 was used for the isolation of Apogen L. The methods of assays were as follows: LNCAP or HL-60 (1,000 cells) was seeded in 10 microliters RPMI containing 15% or 20% Fetal bovine serum, penicillin and streptomycin at 37 degrees, 5% CO2 in Microtray plates (25 μl wells, Robbins Scientific Corp.). The tested sample (10 μl) was added 3-4 hours after cells were seeded. After incubation of the tested sample with cells for 15 hours, two microliters of Hoechst dye (0.03 ng/ml in PBS) was added. Two hours later, cells that were stained with Hoechst dye were examined under fluorescence microscope. […] The percentage of apoptotic cells was calculated by the following equation:
The DNA condensation, DNA fragmentation and peripheral crescents of the nuclei are characteristics of a cell under apoptosis.
Experiment [2] deals with LNCaP (prostate cancer) cells. Kind of experiment: Cell death (apoptosis) assay, LNCaP cells. The class given is cell-based, human. On the procedure:
[…] The free Zinc Acetate and Barium Acetate were removed by repetitive concentration. Fetuin was tested in LNCaP and HL-60 cells. […] Fetuin (in 10 μl PBS) at concentration of 100 ng/ml was added 3-4 hours after the cells were seeded.

The subject of experiment [3] is cancer cell lines. Kind of experiment: Apoptosis assay, cancer cells (cell line not given). Format: cell-based.

The record followed here is US8247380B2, “Alpha 1-acid glycoprotein, alpha 2-HS glycoprotein, alpha 1-antitrypsin, and fragments thereof induce apoptosis in cancer cell lines” (Ambryx Biotechnology, D.C., priority 1997, dated 2012).

In the case of “calcium charged alpha 1-antitrypsin: alpha 1-antitrypsin pre-incubated with EDTA and recharged with calcium [reference compound]”, in experiment [1], the “apoptotic activity / morphology (in words)” value is “no apoptotic activity was seen”.

As to “S-A-S-G-E-A-F-H (SASGEAFH; Polypeptide fragment from treatment of fetuin from bovine sera as described in the specification.) [SEQ ID NO: 2, chemically synthesized bovine fetuin fragment, amino acid no; 310-317]”, the “apoptotic activity / membrane blebbing (in words)” value in experiment [2] (chemically synthesized peptide, three (3) hours of incubation) is on record as “did not show any apoptotic activity”.

Take “alpha 1-acid glycoprotein purchased from Sigma, after zinc charging: commercial alpha 1-acid glycoprotein after zinc charging”: in experiment [3], the “induction of apoptosis in cancer/tumor cell lines (in words)” value is “contained the same activity”.

Take “calcium charged alpha 1-acid glycoprotein: alpha 1-acid glycoprotein pre-incubated with EDTA and recharged with calcium [reference compound]”: the “apoptotic activity / morphology (in words)” value in experiment [1] was “no apoptotic activity was seen”.

B1: Fetuin-Ca: fetuin bound with calcium (protein, UniProt P12763 19-359, looked up)
Alpha-2-HS-glycoprotein: IPLDPVAGYKEPACDDPDTEQAALAAVDYINKHLPRGYKHTLNQIDSVKVWPRRPTGEVYDIEIDTLETTCHVLDPTPLANCSVRQQTQHAVEGDCDIHVLKQDGQFSVLFTKCDSSPDSAEDVRKLCPDCPLLAPLNDSRVVHAVEVALATFNAESNGSYLQLVEISRAQFVPLPVSVSVEFAVAATDCIAKEVVDPTKCNLLAEKQYGFCKGSVIQKALGGEDVRVTCTLFQTQPVIPQPQPDGAEAEAPSAVPDAAGPTPSAAGPPVASVVVGPSVVAVPLPLHRAHYDLRHTFSGVASVESSSGEAFHVGKTPIVGQPSIPGGPVRLCPGRIRYFKI
modifications: calcium bound
For the molecule B1, the “induction of apoptosis in cancer/tumor cell lines (in words)” value in experiment [3] was “inactive in inducing apoptosis”.

B2: supercharged zinc fetuin: Section 4A fetuin stripped of ions with EDTA and reloaded with 0.5 M Zinc Acetate (protein, UniProt P12763 19-359, looked up)
Alpha-2-HS-glycoprotein: IPLDPVAGYKEPACDDPDTEQAALAAVDYINKHLPRGYKHTLNQIDSVKVWPRRPTGEVYDIEIDTLETTCHVLDPTPLANCSVRQQTQHAVEGDCDIHVLKQDGQFSVLFTKCDSSPDSAEDVRKLCPDCPLLAPLNDSRVVHAVEVALATFNAESNGSYLQLVEISRAQFVPLPVSVSVEFAVAATDCIAKEVVDPTKCNLLAEKQYGFCKGSVIQKALGGEDVRVTCTLFQTQPVIPQPQPDGAEAEAPSAVPDAAGPTPSAAGPPVASVVVGPSVVAVPLPLHRAHYDLRHTFSGVASVESSSGEAFHVGKTPIVGQPSIPGGPVRLCPGRIRYFKI
modifications: zinc charged
notes: Section 4A fetuin stripped of ions with EDTA and reloaded with 0.5 M Zinc Acetate
For B2, the “enhancement of ability to induce apoptosis versus original fetuin bound with zinc (Section 4A)” value in experiment [2] (from LD50 on LNCaP cells incubated for 6 hours) is reported as “three to four times”.

B3: calcium charged alpha 2-HS glycoprotein: alpha 2-HS glycoprotein pre-incubated with EDTA and recharged with calcium (protein, UniProt P02765 19-300; P02765 341-367, looked up)
Alpha-2-HS-glycoprotein chain … 1: APHGPGLIYRQPNCDDPETEEAALVAIDYINQNLPWGYKHTLNQIDEVKVWPQQPSGELFEIEIDTLETTCHVLDPTPVARCSVRQLKEHAVEGDCDFQLLKLDGKFSVVYAKCDSSPDSAEDVRKVCQDCPLLAPLNDTRVVHAAKAALAAFNAQNNGSNFQLEEISRAQLVPLPPSTYVEFTVSGTDCVAKEATEAAKCNLLAEKQYGFCKATLSEKLGGAEVAVTCMVFQTQPVSSQPQPEGANEAVPTPVVDPDAPPSPPLGAPGLPPAGSPPDSHVL
Alpha-2-HS-glycoprotein chain … 2: TVVQPSVGAAAGPVVPPCPGRIRHFKV
modifications: calcium charged
B3: in experiment [1], the “apoptotic activity / morphology (in words)” value is given as “no apoptotic activity was seen”.
